Molecular target: BTK (Homo sapiens (Human), UniProt Q06187)
Experiment: Btk kinase assay (HTRF)
Format: biochemical
Settings: [ATP]=80 μM, BTK=3.4 nM; read-out: BTK Inhibition
How it was run: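 HTRF kinase read-out (665/615 nm ratio, excitation 330 nm) after EDTA quench and 1 h detection incubation. Reaction: 3.4 nM BTK, ATP 80 μM, peptide substrate 1 μM, compound, HEPES pH 7.0 buffer, 1 h; IC50 derived using uninhibited and enzyme-free controls.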

Chain of BTK (Q06187 whole entry, species assumed): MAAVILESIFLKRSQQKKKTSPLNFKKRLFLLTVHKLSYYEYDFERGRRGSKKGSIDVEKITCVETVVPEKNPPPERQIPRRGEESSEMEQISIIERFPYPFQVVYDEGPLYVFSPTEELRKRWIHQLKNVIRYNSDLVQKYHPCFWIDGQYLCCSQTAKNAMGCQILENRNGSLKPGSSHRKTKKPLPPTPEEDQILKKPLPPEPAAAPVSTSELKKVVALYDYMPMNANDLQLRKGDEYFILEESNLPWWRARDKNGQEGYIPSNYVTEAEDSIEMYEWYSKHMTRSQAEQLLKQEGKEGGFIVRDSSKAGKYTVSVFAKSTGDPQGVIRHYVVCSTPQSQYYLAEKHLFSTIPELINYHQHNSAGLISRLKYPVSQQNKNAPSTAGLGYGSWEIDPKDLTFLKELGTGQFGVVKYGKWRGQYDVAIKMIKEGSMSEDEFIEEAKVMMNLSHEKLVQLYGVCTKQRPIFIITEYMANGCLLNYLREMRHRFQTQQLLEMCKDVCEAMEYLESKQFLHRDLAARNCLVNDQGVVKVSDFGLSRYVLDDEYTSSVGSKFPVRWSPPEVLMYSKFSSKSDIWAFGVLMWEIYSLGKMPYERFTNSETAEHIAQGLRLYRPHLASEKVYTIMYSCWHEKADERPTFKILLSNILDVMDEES

## C=CC(=O)N1CC[C@@H](n2c(=O)n(-c3ccc(OCc4ccc(F)c(F)c4)cc3)c3cnccc32)C1 [Example 214, (R)-1-(1-acryloylpyrrolidin-3-yl)-3-(4-((3,4-difluorobenzyl)oxy)phenyl)-1H-imidazo[4,5-c]pyridin-2(3H)-one]
  IC50: 1000 to 10000 nM

## C=CC(=O)N1CC[C@@H](n2c(=O)n(-c3ccc(OCc4ccc(Cl)c(Cl)c4)c(Cl)c3)c3cnccc32)C1 [Example 215, (R)-1-(1-acryloylpyrrolidin-3-yl)-3-(3-chloro-4-((3,4-dichlorobenzyl)oxy)phenyl)-1H-imidazo[4,5-c]pyridin-2(3H)-one]
  IC50: 1000 to 10000 nM

## C=CC(=O)N1CC[C@@H](n2c(=O)n(-c3ccc(OCc4ccccc4F)cc3)c3cnccc32)C1 [Example 216, (R)-1-(1-acryloylpyrrolidin-3-yl)-3-(4-((2-fluorobenzyl)oxy)phenyl)-1H-imidazo[4,5-c]pyridin-2(3H)-one]
  IC50: 100 to 1000 nM

## C=CC(=O)Nc1cccc(-n2c(=O)n(-c3ccc(OCc4ccccc4F)c(F)c3)c3cnccc32)c1 [Example 217, N-(3-(3-(3-fluoro-4-((2-fluorobenzyl)oxy)phenyl)-2-oxo-2,3-dihydro-1H-imidazo[4,5-c]pyridin-1-yl)phenyl)acrylamide]
  IC50: 100 to 1000 nM

## C=CC(=O)Nc1cccc(-n2c(=O)n(-c3ccc(OCc4ccc(Cl)c(Cl)c4)cc3)c3cnccc32)c1 [Example 218, N-(3-(3-(4-((3,4-dichlorobenzyl)oxy)phenyl)-2-oxo-2,3-dihydro-1H-imidazo[4,5-c]pyridin-1-yl)phenyl)acrylamide]
  IC50: 100 to 1000 nM

## C=CC(=O)Nc1cccc(-n2c(=O)n(-c3ccc(OCc4cc(F)cc(F)c4)cc3)c3cnccc32)c1 [Example 219, N-(3-(3-(4-((3,5-difluorobenzyl)oxy)phenyl)-2-oxo-2,3-dihydro-1H-imidazo[4,5-c]pyridin-1-yl)phenyl)acrylamide]
  IC50: 100 to 1000 nM

## C=CC(=O)Nc1cccc(-n2c(=O)n(-c3ccc(OCc4cc(F)ccc4F)cc3)c3cnccc32)c1 [Example 220, N-(3-(3-(4-((2,5-difluorobenzyl)oxy)phenyl)-2-oxo-2,3-dihydro-1H-imidazo[4,5-c]pyridin-1-yl)phenyl)acrylamide]
  IC50: 100 to 1000 nM

## C=CC(=O)Nc1cccc(-n2c(=O)n(-c3ccc(OCc4ccc(Cl)cc4)cc3)c3cnccc32)c1 [Example 221, N-(3-(3-(4-((4-chlorobenzyl)oxy)phenyl)-2-oxo-2,3-dihydro-1H-imidazo[4,5-c]pyridin-1-yl)phenyl)acrylamide]
  IC50: 10 to 100 nM

## C=CC(=O)Nc1cccc(-n2c(=O)n(-c3ccc(OCc4cccc(F)c4)cc3)c3cnccc32)c1 [Example 222, N-(3-(3-(4-((3-fluorobenzyl)oxy)phenyl)-2-oxo-2,3-dihydro-1H-imidazo[4,5-c]pyridin-1-yl)phenyl)acrylamide]
  IC50: 10 to 100 nM

## C=CC(=O)Nc1cccc(-n2c(=O)n(-c3ccc(OCc4ccc(C(F)(F)F)cc4)c(Cl)c3)c3cnccc32)c1 [Example 223, N-(3-(3-(3-chloro-4-((4-(trifluoromethyl)benzyl)oxy)phenyl)-2-oxo-2,3-dihydro-1H-imidazo[4,5-c]pyridin-1-yl)phenyl)acrylamide]
  IC50: 100 to 1000 nM

## C=CC(=O)Nc1cccc(-n2c(=O)n(-c3ccc(OCc4ccccc4)c(Cl)c3)c3cnccc32)c1 [Example 224, N-(3-(3-(4-(benzyloxy)-3-chlorophenyl)-2-oxo-2,3-dihydro-1H-imidazo[4,5-c]pyridin-1-yl)phenyl)acrylamide]
  IC50: 100 to 1000 nM

## C=CC(=O)Nc1cccc(-n2c(=O)n(-c3ccc(OCc4ccccc4C)cc3)c3cnccc32)c1 [Example 225, N-(3-(3-(4-((2-methylbenzyl)oxy)phenyl)-2-oxo-2,3-dihydro-1H-imidazo[4,5-c]pyridin-1-yl)phenyl)acrylamide]
  IC50: 100 to 1000 nM

## C=CC(=O)Nc1cccc(-n2c(=O)n(-c3ccc(OCc4c(F)cccc4F)cc3)c3cnccc32)c1 [Example 226, N-(3-(3-(4-((2,6-difluorobenzyl)oxy)phenyl)-2-oxo-2,3-dihydro-1H-imidazo[4,5-c]pyridin-1-yl)phenyl)acrylamide]
  IC50: 100 to 1000 nM

## C=CC(=O)Nc1cccc(-n2c(=O)n(-c3ccc(OCc4c(F)cccc4F)c(F)c3)c3cnccc32)c1 [Example 227, N-(3-(3-(4-((2,6-difluorobenzyl)oxy)-3-fluorophenyl)-2-oxo-2,3-dihydro-1H-imidazo[4,5-c]pyridin-1-yl)phenyl)acrylamide]
  IC50: 100 to 1000 nM

## C=CC(=O)Nc1cccc(-n2c(=O)n(-c3ccc(OCc4ccccc4F)cc3)c3cnccc32)c1 [Example 228, N-(3-(3-(4-((2-fluorobenzyl)oxy)phenyl)-2-oxo-2,3-dihydro-1H-imidazo[4,5-c]pyridin-1-yl)phenyl)acrylamide]
  IC50: 100 to 1000 nM

## C=CC(=O)Nc1cccc(-n2c(=O)n(-c3ccc(OCc4ccc(Cl)cc4Cl)cc3)c3cnccc32)c1 [Example 229, N-(3-(3-(4-((2,4-dichlorobenzyl)oxy)phenyl)-2-oxo-2,3-dihydro-1H-imidazo[4,5-c]pyridin-1-yl)phenyl)acrylamide]
  IC50: 10 to 100 nM

## C=CC(=O)Nc1cccc(-n2c(=O)n(-c3ccc(OCc4cccc(Cl)c4)cc3)c3cnccc32)c1 [Example 230, N-(3-(3-(4-((3-chlorobenzyl)oxy)phenyl)-2-oxo-2,3-dihydro-1H-imidazo[4,5-c]pyridin-1-yl)phenyl)acrylamide]
  IC50: 10 to 100 nM

## C=CC(=O)Nc1cccc(-n2c(=O)n(-c3ccc(OCc4ccccc4Cl)cc3)c3cnccc32)c1 [Example 231, N-(3-(3-(4-((2-chlorobenzyl)oxy)phenyl)-2-oxo-2,3-dihydro-1H-imidazo[4,5-c]pyridin-1-yl)phenyl)acrylamide]
  IC50: 10 to 100 nM

## C=CC(=O)Nc1cccc(-n2c(=O)n(-c3ccc(OCc4ccccc4C(F)(F)F)cc3)c3cnccc32)c1 [Example 232, N-(3-(2-oxo-3-(4-((2-(trifluoromethyl)benzyl)oxy)phenyl)-2,3-dihydro-1H-imidazo[4,5-c]pyridin-1-yl)phenyl)acrylamide]
  IC50: 10 to 100 nM

## C=CC(=O)Nc1cccc(-n2c(=O)n(-c3cccc(OCc4ccccc4)c3)c3cnccc32)c1 [Example 233, N-(3-(3-(3-(benzyloxy)phenyl)-2-oxo-2,3-dihydro-1H-imidazo[4,5-c]pyridin-1-yl)phenyl)acrylamide]
  IC50: 10 to 100 nM

## C=CC(=O)Nc1cccc(-n2c(=O)n(-c3ccc(OCc4ccccc4)c(F)c3)c3cnccc32)c1 [Example 234, N-(3-(3-(4-(benzyloxy)-3-fluorophenyl)-2-oxo-2,3-dihydro-1H-imidazo[4,5-c]pyridin-1-yl)phenyl)acrylamide]
  IC50: 100 to 1000 nM

## C=CC(=O)Nc1cccc(-n2c(=O)n(-c3ccc(OCc4ccccc4F)c(Cl)c3)c3cnccc32)c1 [Example 235, N-(3-(3-(3-chloro-4-((2-fluorobenzyl)oxy)phenyl)-2-oxo-2,3-dihydro-1H-imidazo[4,5-c]pyridin-1-yl)phenyl)acrylamide]
  IC50: 10 to 100 nM

## C=CC(=O)N1CC[C@@H](n2c(=O)n(-c3ccc(OCc4ccccc4F)c(Cl)c3)c3cnccc32)C1 [Example 236, (R)-1-(1-acryloylpyrrolidin-3-yl)-3-(3-chloro-4-((2-fluorobenzyl)oxy)phenyl)-1,3-dihydro-2H-imidazo[4,5-c]pyridin-2-one]
  IC50: 100 to 1000 nM

Source: patent US10358446B2, “Bruton's tyrosine kinase inhibitors” (Zibo Biopolar Changsheng Pharmaceutical Co. Ltd., priority 2015, dated 2019)
